The values that follow come from ChEMBL document CHEMBL1145256, “Synthesis of novel 10-deoxoartemisinins” (Bioorg Med Chem Lett, 2005).

A word on the pIC50: it is the IC50 on a negative log10 scale, so that one unit is a factor of ten. A low value points to a high IC50.

pIC50: −log10 of the molar value.

The subject of test [1] is Plasmodium falciparum. In words: microbe, parasite or virus in culture.
Description: In vitro antimalarial activity against Plasmodium falciparum (Ghana)
The subject of test [2] is Plasmodium falciparum. Description: microbe, parasite or virus in culture. This is another data set of the same source.
Description: In vitro antimalarial activity against Plasmodium falciparum resistant W-2

For the compound `C[C@H]1[C@@H](CCOC(=O)C2CCCCC2C(=O)O)O[C@@H]2O[C@]3(C)CC[C@H]4[C@H](C)CC[C@@H]1[C@@]24OO3` (some centres not stated), the pIC50 in test [1] is 9.30; in test [2] it was 9.40.
Taken in the same sequence, the figures for `C[C@H]1[C@@H](CCOC(=O)C2CC=CCC2C(=O)O)O[C@@H]2O[C@]3(C)CC[C@H]4[C@H](C)CC[C@@H]1[C@@]24OO3` (some centres not stated) were 9.30 and 9.40.
On the same counts, the results for `C[C@H]1[C@@H](CCNCc2ccccn2)O[C@@H]2O[C@]3(C)CC[C@H]4[C@H](C)CC[C@@H]1[C@@]24OO3` are 8.70 and 8.70.
Taken in the same sequence, the figures for `C[C@H]1[C@@H](CCNCCc2ccccc2)O[C@@H]2O[C@]3(C)CC[C@H]4[C@H](C)CC[C@@H]1[C@@]24OO3` were 7.96 and 7.70.
Regarding `C[C@H]1[C@@H](CCOC(=O)CCC(=O)O)O[C@@H]2O[C@]3(C)CC[C@H]4[C@H](C)CC[C@@H]1[C@@]24OO3`, the values for the pIC50 in test [1] and in test [2] were 9.30 and 9.40, respectively.
Taken in the same sequence, the figures for `CCCNCC[C@H]1O[C@@H]2O[C@]3(C)CC[C@H]4[C@H](C)CC[C@@H]([C@H]1C)[C@@]24OO3` were 9.00 and 8.52.
Taken in the same sequence, the figures for `C[C@H]1[C@@H](CCNCc2cccnc2)O[C@@H]2O[C@]3(C)CC[C@H]4[C@H](C)CC[C@@H]1[C@@]24OO3` were 9.00 and 9.00.
Taken in the same sequence, the figures for `C[C@H]1[C@@H](CCO)O[C@@H]2OC3(C)CC[C@H]4[C@H](C)CC[C@@H]1[C@@]24OO3` (single isomer, unassigned) were 9.00 and 9.00.
Regarding `C[C@@H]1CC[C@H]2[C@@H](C)C(=O)O[C@@H]3O[C@@]4(C)CC[C@@H]1[C@]32OO4` [ARTEMISININ], the pIC50 in test [1] is 8.05.
